Assay results reported in patent US7645882B2, “Inhibitor of protein modification products formation” (priority 2003, dated 2010).

Key:
normal rat (WKY rat) = assay: Vitamin B6 deficiency in normal rat; type: in vivo; details: 13 mg/kg/rat/once twice daily by sonde, 20 weeks
Description: TM-2002 was administered to normal rat (WKY rat: Japan SLC) to examine the presence of vitamin B6 deficiency. Aminoguanidine, which is known its vitamin B6 capturing effect was used as control. Each group involves 10 rats. 13 mg/kg/rat/once of TM-2002 or aminoguanidine suspended in carboxymethyl cellulose (0.5%) was respectively administered coercively using sonde twice a daily. Administration term was 20 weeks. The conventional diet (CRF1: Oriental yeast) was used.
After 20 weeks, the appearance of WKY rat was observed.

pentosidine = assay: Pentosidine production inhibiting effect with BSA and arabinose; type: biochemical; details: BSA and arabinose instead of plasma
Description: Fresh heparinized plasma samples were obtained after informed consent from hemodialysis patients prior to the dialysis session, and filtrated and sterilized. To the plasma (450 μL), there was added the solution of TM-2002 in dimethylsurphoxide (50 μL) (final concentration: 0.8, 2.0, 5.0 mM) incubated at 37° C. for one week. Then, the amount of pentosidine was measured.
Measurement of the amount of pentosidine was made as follows: to each incubated sample (50 μL) was added an equal volume of 10% trichloroacetic acid, followed by centrifugation at 5000 g for 5 minutes; after removal of the supernatant, the pellet was washed by 5% trichloroacetic acid (300 μL); the pellet was dried under reduced pressure and then subjected to hydrolysis in 6N HCl solution (100 μL) at 110° C. under nitrogen atmosphere for 16 hours; to the hydrolysate, 5N NaOH (100 μL) and 0.5 M phosphate buffer (pH 7.4) (200 μL) were added, followed by filtration through a porefilter with a pore size of 0.5 μm and dilution with PBS. The concentration of free pentosidine was determined by reversed-phase HPLC using a fluorescence detector (Miyata, T. et al.: Proc. Natl. Acad. Sci. USA, Vol. 93, p. 2353-2358, 1996). The effluent was monitored at 335/385 nm of excitation/emission wavelength. Synthetic pentosidine was used as the standard. The detection limit of pentosidine was 0.1 pmol/mg protein.
The plasma from patients was substituted to BSA and arabinose, and the pentosidine production inhibiting effect of another compounds (I) or (II) was measured in the same manner as [Test Examination 1]. Therein, “-” means that the examination was not carried out.

[1] = Examination of stabilizing agent in TM-2002 hydrochloride solution; type: physicochemical
Source text: Several kind of stabilizing agent was usually used to stabilize the medicament and the effective manner is addition of antioxidant. Particularly, the material having lower oxidation-reduction potential is effective to stabilize highly oxidized compound. Accordingly, for sodium acid sulfite (NaHSO3) and L-cystein ([…]), which are usually used in injection, the stability was examined by adding such materials to TM-2002 hydrochloride aqueous solution.
The solving state of TM-2002 hydrochloride solution added sodium acid sulfite was examined in following manner; 1 ml of purified water, sodium acid sulfite (0.5 mg) and sodium acid sulfite (1 mg) solution was prepared respectively; to these solutions, there was added 63 mg of TM-2002 hydrochloride, stirred and solved; the solutions allowed to warm to room temperature to observe the solving state. […] Accordingly, the stability of TM-2002 itself will increase by using hydrochloride.
The solving state of TM-2002 hydrochloride solution added L-cystein hydrochloride was examined in following manner; 1 mg and 2 mg of L-cystein hydrochloride were dissolved in 1 ml of purified water respectively; pH was adjusted to 6.5; to these solutions, there was added 63 mg of TM-2002 hydrochloride, stirred and solved; the solutions allowed to warm to room temperature to observe the solving state. […] In addition, the degradability was observed by thin layer chromatography (TLC/Silica-gel 60F254 (Merck Japan)/developing solvent: chloroform:methanol=9:1/detection:UV=254 nm). […] Accordingly, the present invention provides lyophilized formulation comprising L-cystein by treating TM-2002 hydrochloride solution at low temperature and lyophilizing.

[2] = Solubility and stability of TM-2002 injectable lyophilized formulation; type: physicochemical; details: room temperature, at 10 hours
Description: L-cystein hydrochloride (160 mg) was added to 80 ml of purified water, stirred and solved. The solution was adjust at pH 6.7 with 1N NaOH aqueous solution. Then 1 g of TM-2002 hydrochloride was added, stirred and solved, and the solution diluted with purified water to 100 ml with measuring flask. Such solution was divided into vial container of 50 ml by 6.3 ml each, frozen immediately with dry ice, and then stored at −80° C. to freeze completely. This was subjected to lyophilized for 3 days using lyophilizer. After lyophilizing, covered by rubber cap and sealed by aluminum cap using fastener, TM-2002 injectable lyophilized formulation was prepared.
To TM-2002 injectable lyophilized formulation prepared above, there was added 20 ml of purified water per 1 vial. […] TLC (Kiezel gel 60F254/developing solvent: CHCl3:MeOH=9:1/detection:UV=254 nm) was carried out to examine the change of ingredient. […] The result of TLC is represented in FIG. 16. When the solution was further diluted with saline, the stability was as same. […] The formulation is suitable for injectable lyophilized formulation which is prepared before use, and stable and usable.

ORP150 = assay: ER stress inducing molecule expression in RIN-5F cells, western blot, ORP150; type: cell-based, rat; details: tunicamycin added, 8 hours
Description: (§1) Rat pancreatic β cell line (RIN-5F) was seeded in 6 well culture plate to 1.0×10^5 cells/well, and after 24 hours, TM-2002 in DMSO (200 mM, 50 mM) were added to be final concentration 200 μM, 50 μM. After another 1 hour, 0.2 μl of tunicamycin (Sigma) in methanol(1 mg/ml) was added. After culturing 8 hours, the cells were washed 2 ml of PBS(+) twice, and the cells were dissolved in 100 μl of lysate (50 mM Tris-HCl (pH 7.5), 150 mM NaCl, 100 mM NaF, 100 mM sodium phosphate (pH 7.4), 2 mM Na3VO4, 0.1% protease inhibitor cocktail (Sigma), 1% Triton X-100). To remove the insoluble fraction of this lysate, centrifuged at 12,000×g for 10 minutes and obtained the supernatant to give cell extract. The extract was quantified its protein concentration using DC protein assay kit (Bio Rad), and each samples (1 μg) was electrophoresed by SDS-PAGE and transferred to PVDF membrane. The membrane was blocked with 5% skimmed milk/0.1% Tween20-TBS for 1 hour at room temperature, and reacted with anti-ORP150 antibody in 5% skimmed milk/0.1% Tween20-TBS (2000 folds: specific antibody), anti-GRP78 antibody (Santa Cruz) in 5% skimmed milk/0.1% Tween20-TBS (100 folds) and anti-actin antibody (Sigma) in 5% skimmed milk/0.1% Tween20-TBS (200 folds) for 2 hours. […] The detected signal was analyzed by Lane analyzer (ATTO) and calculated the signal strength. […]

GRP78 = assay: ER stress inducing molecule expression in RIN-5F cells, western blot, GRP78; type: cell-based, rat; details: tunicamycin added, 8 hours
Description: as §1

[3] = 63 mg in 1 ml purified water only, pH 2 to 2.5, after 24 hours

## N=C(N)NN [aminoguanidine]
Normal rat (WKY rat)
  condition caused by vitamin B6 deficiency (appearance): skin inflammation, epilepsy and convulsion caused by cerebral disorder were observed

## Cc1ncc2c(c1O)C(c1c(C)nn(-c3ccccc3)c1O)OC2.Cl (centres unmarked) [compound 69, 1-(5-hydroxy-3-methyl-1-phenyl-1H-pyrazol-4-yl)-6-methyl-1,3-dihydro-furo[3,4-c]pyridin-7-ol (hydrochloric acid salt)]
pentosidine
  Pentosidine production rate in 5 mM of medicament (%): 2.94%
[1]; [3]
  TM-2002 degradation: significant suppress of TM-2002 degradation was observed
  solving state: no change was observed in its solving state
[1]; 63 mg in 1 ml with 0.5 mg or 1 mg sodium acid sulfite, room temperature, after 24 hours
  solving state: remarkable precipitates were observed
[1]; 63 mg in 1 ml with 1 mg or 2 mg L-cystein hydrochloride, after 24 hours
  solving state: no change was observed in solving state
[1]; 63 mg in 1 ml with 1 mg or 2 mg L-cystein hydrochloride, pH adjusted to 6.5, room temperature
  solving state: no precipitates and deposits was observed
[1]; by addition of L-cystein, room temperature
  stabilization (TLC): significantly stabilized
[1]; left over 24 hours at room temperature
  degradability (TLC): degraded very slowly
[1]; solution with L-cystein hydrochloride, preservation at −20° C., one week
  stability of the solution: stable after one week
[1]; with sodium sulfite or sodium pyrosulfite instead of sodium acid sulfite
  solving state: crystal precipitate was deposited
[2]
  decomposition products (TLC): decomposition products were observed

## tunicamycin [reference compound]
ORP150
  ORP150 expression compared to control sample: 1.88 folds
GRP78
  GRP78 expression compared to control sample: 1.46 fords
